Measurements reported in patent US20210023089A1, “Compositions Useful for Treating Herpes Simplex Keratitis, and Methods Using Same” (priority 2013, published 2021).

How the values were obtained:
HSV-1 [1] = experiment: Plaque assay of supernatants from HSV-1 infected HCE cells; assay type: cell-based, HSV-1 (KOS strain); conditions: MOI 0.1, 10 μM, vs controls
Method: All cells were cultured at 37° C. and 5% CO2, and supplemented with 100 U/ml penicillin and 100 μg/ml streptomycin. Human corneal epithelial cells immortalized with hTERT (hTCEpi; Bahassi et al., 2008, Oncogene 27:3977-3985) were grown in complete KGM-2 medium. Human corneal epithelial cells immortalized with SV40 large T antigen (HCE; Araski-Sasaki et al., 1995, Invest. Ophthalmol. Visual Sci. 36:614-621), as well as African green monkey kidney fibroblasts (CV-1; Jensen et al., 1964, Proc. Natl. Acad. Sci. USA 52:53-59), were grown in DMEM medium supplemented with 10% FBS. KOS strain (Smith, Proc. Soc. Exp. Biol. Med. Soc. Exp. Biol. Med. 115:814-816) of HSV-1 was used in all infections. All viral stocks were titered on CV-1 monolayers.
Cells were grown in 6-well plates and used in experiments at […] confluence. Drug treatments were administered 45 min prior to infection and continued for the entire duration of each experiment. Unless indicated otherwise, Chk2 inhibitor II (>98% purity by HPLC) was used at 10 μM final concentration, and phosphonoacetic acid (PAA) at 400 μg/ml (both from Sigma-Aldrich, St. Louis, Mo.). Chk2 inhibitor II was dissolved in DMSO such that the final concentration of DMSO in both Chk2 inhibitor II and mock treatment was 0.1%. […]

HSV-1 [2] = experiment: Western blot of viral proteins in HSV-1 infected hTCEpi cells; assay type: cell-based, HSV-1 (KOS strain); conditions: MOI 0.1, 10 μM, 16 hpi
Method: (§1) The following strains of HSV-1 were used: KOS, ICPO-null, HFEM, and tsB7. Subconfluent monolayers of cells were grown in six-well plates. Drug treatments were administered 45 minutes prior to infection and continued for the entire duration of each experiment. Unless indicated otherwise, KU-55933 (Batch No. 5, 99.7% purity; Tocris Bioscience, Bristol, UK) was used at 10 μM final concentration, phosphonoacetic acid (PAA) at 400 μg/mL (Sigma-Aldrich, St. Louis, Mo.), and acyclovir at 50 μg/mL (Sigma-Aldrich). KU-55933 was dissolved in dimethyl sulfoxide (DMSO), and the final concentration of DMSO in both KU-55933 and mock treatment in the in vitro and the ex vivo experiments was 0.1%.
Standard protocol was followed for Western blot analysis. Cell lysates were collected in 200 μL Laemmli buffer, vortexed, and boiled at 95° C. for 5 minutes. Protein concentrations were measured by bicinchoninic acid (BCA) assay. SDS-PAGE was followed by transfer onto a polyvinylidene difluoride (PVDF) membrane, which was then blocked in 5% BSA. […]

HSV-1 [3] = experiment: HSV-1 replication (relative genome level) in normal and cancer cell lines; assay type: cell-based; conditions: KU-55933 10 μM
Method: All cells were cultured at 37° C. and 5% CO2, and supplemented with 100 U/ml penicillin and 100 μg/ml streptomycin. hTCEpi human corneal epithelial cells were cultured in KGM-2 (Lonza, Basel, Switzerland). HCE human corneal epithelial cells were cultured in DMEM/F-12 supplemented with 10% FBS. EPC2 human esophageal epithelial cells were cultured in KSFM (Carlsbad, Calif.). OKF6 human oral epithelial cells were cultured in KSFM. E5 cells, which are CV-1 cells stably expressing HSV-1 ICP4 protein, were cultured in DMEM supplemented with 10% FBS. HEK293 human embryonic kidney epithelial cells, HeLa human cervical adenocarcinoma cells, U2OS human osteosarcoma cells, H1299 human lung carcinoma cells, and SH-SY5Y human neuroblastoma cells were all obtained from American Type Culture Collection and cultured in DMEM supplemented with 10% FBS.
Total DNA was isolated from infected cells using the DNeasy Blood & Tissue Kit (QIAGEN, Hilden, Germany). Real time quantitative PCR was performed with SYBR Green (Bio-Rad, Hercules, Calif.). Target primers for UL30 (DNA polymerase catalytic subunit) and reference primers for GAPDH were used to measure genome replication. Primer sequences were provided in Alekseev et al., 2014, Invest. Ophthalm. Vis. Sci. 55:706-715). Real time PCR data were processed using the ΔΔC(t) method. […]

HSV-1 [4] = experiment: qRT-PCR of viral transcripts in HSV-1 infected hTCEpi cells; assay type: cell-based, HSV-1 (KOS strain); conditions: MOI 0.1, 10 μM, 16 hpi
Method: as §1
Viral genome replication and transcription were measured by quantitative PCR (qPCR). Total DNA and RNA from infected cells were isolated using the DNeasy Blood & Tissue Kit and the RNeasy Mini Kit, respectively (QIAGEN, Hilden, Germany). RNA was converted to cDNA using qScript (Quanta BioSciences, Gaithersburg, Md.). Real-time qPCR was performed with SYBR Green (Bio-Rad, Hercules, Calif.). […] Transcription of the three gene families was measured with primers for RL2 (ICPO), UL30 (DNA polymerase catalytic subunit), and UL44 (gC), with reference primers for the 18S ribosomal RNA (rRNA).

| SMILES | generation of infectious viral particles (plaque assay) (HSV-1 [1]) | levels of viral proteins (Western blot) (HSV-1 [2]) | HSV-1 replication in transformed or cancer cell lines (HSV-1 [3]; HeLa, U2OS, H1299, SH-SY5Y) | HSV-1 replication in normal cell types (HSV-1 [3]; hTCEpi, HCE, OKF6, EPC2) | levels of viral transcripts (ICP0, DNA polymerase, glycoprotein C) (HSV-1 [4]) |
| --- | --- | --- | --- | --- | --- |
| NC(=O)c1ccc2[nH]c(-c3ccc(Oc4ccc(Cl)cc4)cc3)nc2c1 [Chk2 inhibitor II, 2-(4-(4-chlorophenoxy)phenyl)-1H-benzimidazole-5-carboxamide] | reduction |  |  |  |  |
| O=c1cc(-c2cccc3c2Sc2ccccc2S3)oc(N2CCOCC2)c1 [KU-55933, 2-(morpholin-4-yl)-6-(thianthren-1-yl)-pyran-4-one] |  | pronounced decrease | little effect | potently suppressed | reduced |
